Test results: patent US9707126B2, “Systems and methods for corneal cross-linking with pulsed light” (Avedro, Inc., priority 2009, dated 2017)
Entries after “also recorded” stand apart in the source; their conditions may differ.

Assays:
[1] = Absorbance of Riboflavin before and after UVA irradiation (FIG. 3); type: physicochemical; conditions: 0.2 mm light path
Procedure: Referring now to FIG. 3, a graph illustrating absorbance for 0.2 mm light path of an initial sample of Riboflavin versus absorbance for 0.2 mm light path of reduced Riboflavin RfH2 after being irradiated for 3 minutes at an irradiance of 30 mW/cm^2. At a wavelength of 445 nm, the absorbance of the initial sample is about 0.543, while the absorbance of the irradiated sample is about 0.340.

porcine cornea [2] = experiment: Collagen linked fluorescence in cross-linked corneal flaps at depths of 100 μm and 200 μm (Example 2)
Procedure: Porcine whole globes (SiouxPreme Packing Co., Sioux City, Iowa; shipped in saline solution packed in ice) were warmed to room temperature (25° C.). The corneas were then de-epithelialized with a dulled scalpel blade and 0.1, 0.25, or 0.5% riboflavin solution in 0.9% saline was applied to the top of each cornea during 20 minutes before cross-linking Corneas were pan-corneally irradiated with a top hat beam (3% root mean square) for a determined amount of time with 365-nm light source (UV LED NCSU033B[T]; Nichia Co., Tokushima, Japan) at the chosen irradiance (3 or 30 mW/cm^2) which was measured with a power sensor (model PD-300-UV; Ophir, Inc., Jerusalem, Israel) at the corneal surface.
Corneal flaps (each 100 μm thick, one after another) were excised from the eyes with aid of Intralase femtosecond laser (Abbott Medical Optics, Santa Ana, Calif.). The average thickness of the corneal flaps was calculated as a difference between the measurements before and after the excision from the eyes with an ultrasonic Pachymeter (DGH Technology, Exton, Pa.). The flaps were washed with distilled water until Riboflavin in the washing waters was not detectable by absorbance measurement at 455 nm (Thermo Scientific Evolution 300/600 UV-Vis Spectrophotometer, Thermo Fisher Scientific, Waltham, Mass.). […]

porcine cornea [3] = experiment: Force versus displacement of cross-linked corneal flaps, biaxial materials tester (Example 3)
Procedure: Upon arrival, porcine eyes have excess muscle tissue that was removed and placed in saline in the incubator (set to 37° C.) for 30 minutes. […] Eyes were removed from solution and physiological IOP was applied. Eyes were then placed under a UVA source and shutter system and irradiated according to the indicated protocol as shown in FIGS. 5A-5C. Riboflavin drops were applied every 1.5 minutes during UVA application. After being irradiated, the corneal thickness was measured with a pachymeter. The sample was then placed under the femto second laser and a ˜200 μm flap was cut. The flap was positioned in a biaxial materials tester (CS-BIO TESTER 5000, CellScale, Waterloo, ON Canada) and stretched until failure. The sample was then rinsed with distilled water and frozen for future papain digestion and fluorescence analysis.

porcine cornea [4] = experiment: Fluorescence of digested 200 μm corneal flaps, continuous wave versus pulsed illumination (Example 4); conditions: for fluorescence at 455 nm: 0.1% Riboflavin, 200 μm flap
Procedure: In another corroborating experiment porcine whole globes (SiouxPreme Packing Co., Sioux City, Iowa; shipped in saline solution packed in ice) were warmed to room temperature (25 C). The corneas were then de-epithelialized with a dulled scalpel blade and 0.1, Riboflavin solution in 0.9% saline was applied to the top of each cornea during 20 minutes before cross-linking in an incubator. Corneas were pan-corneally irradiated with a top hat beam (3% root mean square) for a determined amount of time with 365-nm light source (UV LED NCSU033B[T]; Nichia Co., Tokushima, Japan) at the chosen irradiance of 30 mW/cm^2 with either continuous wave illumination or pulsed illumination 3 seconds on/3 Seconds off. Corneal flaps (200 μm thick) were excised from the eyes with aid of Intralase femtosecond laser (Abbott Medical Optics, Santa Ana, Calif.). The average thickness of the corneal flaps was calculated as a difference between the measurements before and after the excision from the eyes with an ultrasonic Pachymeter (DGH Technology, Exton, Pa.).
The flaps were washed with distilled water until Riboflavin in the washing waters was not detectable by absorbance measurement at 455 nm (Thermo Scientific Evolution 300/600 UV-Vis Spectrophotometer, Thermo Fisher Scientific, Waltham, Mass.). […] Papain digests were centrifuged for 30 seconds at 2200×G (Mini centrifuge 05-090-100, Fisher Scientific), diluted 3 times with 1×PBS solution and fluorescence of the solutions was measured with excitation of λex=360 nm in a QM-40 Spectrofluorometer (Photon Technology Int., London, Ontario, Canada).
The fluorescence of the papain buffer was taken into account by measuring fluorescence in the absence of tissue and subtracting this value from the fluorescence of the samples. The results seen below corroborate that the amount of fluorescence seen which is directly related to the amount of cross-linking is greater for the pulsed vs. continuous wave illumination in nearly the same proportion as the biomechanical measurements taken of the same flaps.

porcine cornea [5] = experiment: Cross-linking measured by fluorescence of digested corneal flaps at 450 nm (Example 5); conditions: 0.1% Riboflavin, humid oxygenated environment with pulsed UV light 30 mW/cm^2, 1.5 seconds on/3 seconds off, 9 minutes
Procedure: Pig eyes from an abattoir (SiouxPreme, Sioux City, Iowa) were rinsed in saline. Eyes were cleaned and the epithelium was removed. Eyes were placed on a stand in the middle of a large beaker filled part way with water with a tube bubbling compressed oxygen into the water. The oxygen was turned on at certain times during the experiment to create a humid oxygenated environment for the eye. Eyes were soaked for 20 minutes with 0.1% Riboflavin, dH2O solution in an incubator set at 37° C. by using a rubber ring to hold the solution on top. Corneas were pan-corneally irradiated with a top hat beam (3% root mean square) for a determined amount of time and irradiance (3 minutes CW at 30 mW/cm^2 with one drop of solution added every 30 seconds, or 30 minutes CW at 3 mW/cm^2 with one drop of solution added every minute, or 9 minutes for pulsed light—1.5 seconds on/3 seconds off—using a shutter system (Lambda SC Smart Shutter, Sutter Instrument, Novato, Calif.) at 30 mW/cm^2 with one drop of solution added every minute) with a 365-nm light source (UV LED NCSU033B[T]; Nichia Co., Tokushima, Japan). The irradiance was measured with a power sensor (model PD-300-UV; Ophir, Inc., Jerusalem, Israel) at the corneal surface. […]
FIG. 7A illustrates a graph of the amount of cross-linking measured by fluorescence of the digested corneal flaps at 450 nm. […]

porcine corneal flaps = experiment: Fluorescence of papain-digested corneal flaps treated with RFH2 solutions (Example 1)
Procedure: RFH2 was prepared by irradiation of Riboflavin solutions (with and without EDTA, 1% EDTA, 0.1% Riboflavin) and saturated with argon (to displace oxygen) in a shallow sealed quartz cuvette. Then, in the absence of additional UV light, porcine corneal flaps were immediately placed in those solutions. After 1-2 min this procedure was repeated with a fresh solution containing RFH2 several times. Corneal flaps then were washed with distilled water, digested with papain buffer, and their fluorescence was measured.

Cc1cc2nc3c(=O)[nH]c(=O)nc-3n(C[C@H](O)[C@H](O)[C@H](O)CO)c2cc1C [Riboflavin]
absorbance at 445 nm ([1]; initial sample): about 0.543
corneal fluorescence at first 100 μm versus next 100 μm (porcine cornea [2]; 0.1, 0.25 or 0.5% Riboflavin, 3 or 30 mW/cm^2, dose 5.4 J/cm^2): greater at first 100 μm than at the next 100 μm
corneal fluorescence relative to non-cross-linked samples (porcine cornea [2]; first 100 μm, 0.1% Riboflavin solution, 3 mW/cm^2, dose 5.4 J/cm^2): highest corneal fluorescence
biomechanical stiffness (FIG. 5C) (porcine cornea [3]; 0.1% Riboflavin, 30 mW/cm^2 pulsed 3 seconds on/4.5 seconds off and 3 seconds on/3 seconds off): slightly lower biomechanical stiffness
biomechanical stiffness (FIG. 5C) (porcine cornea [3]; 0.25% Riboflavin, 3 mW/cm^2 continuous wave): lowest biomechanical stiffness out of samples 1 and 3-7
biomechanical stiffness (FIG. 7B) (porcine cornea [3]; 3 mW/cm^2 and 30 mW/cm^2 continuous wave illumination, versus pulsed with oxygen): lower biomechanical stiffness
biomechanical stiffness (FIG. 5C) (porcine cornea [3]; 30 mW/cm^2 pulsed, 3 seconds on, 1.5, 0.75 and 0.25 seconds off (samples 5, 6, 7)): in descending order
biomechanical stiffness (FIG. 5C) (porcine cornea [3]; sample 1: 0.1% Riboflavin, 3 mW/cm^2 continuous wave): highest biomechanical stiffness
biomechanical stiffness (FIG. 5B) (porcine cornea [3]; sample 2: 0.1% Riboflavin, 30 mW/cm^2 pulsed, 4.5 second exposure cycles, 3 seconds off): slightly lower biomechanical stiffness than samples 3 or 1
biomechanical stiffness (FIG. 5A) (porcine cornea [3]; sample 2: 0.25% Riboflavin, 3 mW/cm^2 continuous wave vs. sample 3 at 30 mW/cm^2, 5.4 J/cm^2): dissimilar biomechanical stiffness
biomechanical stiffness (FIG. 7B) (porcine cornea [3]; sample 3: 30 mW/cm^2 pulsed light with oxygen, 3 seconds on/3 seconds off): highest biomechanical stiffness
biomechanical stiffness (FIG. 5A) (porcine cornea [3]; sample 5: 30 mW/cm^2 continuous wave, total 35.1 J/cm^2 dose): higher than that for samples 6, 7, 3, 4, and 1; also recorded: lower than that for sample 2
biomechanical stiffness (FIG. 5A) (porcine cornea [3]; sample 8: 0.1% Riboflavin, 30 mW/cm^2 pulsed 3 seconds on/3 seconds off): higher than both the samples 6 and 7
fluorescence at 455 nm (porcine cornea [4]; 30 mW/cm^2 continuous illumination): about 12000 counts/s
fluorescence at 455 nm (porcine cornea [4]; 30 mW/cm^2 pulsed light 3 seconds on/3 seconds off): about 20,000 counts/s
fluorescence at 455 nm, continuous less than pulsed (porcine cornea [4]; 30 mW/cm^2 continuous versus pulsed 3 seconds on/3 seconds off): about 40%
amount of cross-linking by fluorescence of digested flaps at 450 nm (FIG. 7A) (porcine cornea [5]): greatly increases the amount of cross-linking

Cc1cc2c(cc1C)N(C[C@H](O)[C@H](O)[C@H](O)CO)c1[nH]c(=O)[nH]c(=O)c1N2 [RfH2, Leuco-Deuteroflavin]
absorbance at 445 nm ([1]; after irradiation for 3 minutes at 30 mW/cm^2): about 0.340
fluorescence of corneal samples (porcine corneal flaps; Riboflavin solution irradiated with a reducing agent, EDTA (1% EDTA, 0.1% Riboflavin)): highest
fluorescence of corneal samples versus samples washed with unexposed Riboflavin (porcine corneal flaps; preliminary UVA-exposed Riboflavin solutions, no further UV light): higher
